Where two headings read alike, the source gives them in different places.
Test system: Influenza A H3N2 virus (H3N2)
Assay type: cell-based

## O=C(O[C@@H]1Cc2c(O)cc(O)cc2O[C@@H]1c1cc(O)c(O)c(O)c1)c1cc(O)c(O)c(O)c1 [EGCG, Epigallocatechin gallate]
0.2 mM EGCG + H3N2 virus, 1 minute, first experiment, dilution factor 10^1
  CPE test, virus replication in cell wells (wells 1-10): +
0.2 mM EGCG + H3N2 virus, 1 minute, first experiment, dilution factor 10^2
  CPE test, virus replication in cell wells (wells 1-10): +
0.2 mM EGCG + H3N2 virus, 1 minute, first experiment, dilution factor 10^3
  CPE test, virus replication in cell wells (wells 1-10): +
0.2 mM EGCG + H3N2 virus, 1 minute, first experiment, dilution factor 10^4
  CPE test, virus replication in cell wells (wells 1-10): +
0.2 mM EGCG + H3N2 virus, 1 minute, first experiment, dilution factor 10^5
  CPE test, virus replication in cell wells (wells 1-10): + and −
0.2 mM EGCG + H3N2 virus, 1 minute, first experiment, dilution factor 10^6
  CPE test, virus replication in cell wells (wells 1-10): −
0.2 mM EGCG + H3N2 virus, 1 minute, first experiment, dilution factor 10^7
  CPE test, virus replication in cell wells (wells 1-10): −
0.2 mM EGCG + H3N2 virus, 1 minute, first experiment, dilution factor 10^8
  CPE test, virus replication in cell wells (wells 1-10): −
0.2 mM EGCG + H3N2 virus, 1 minute, second experiment, dilution factor 10^1
  CPE test, virus replication in cell wells (wells 1-10): +
0.2 mM EGCG + H3N2 virus, 1 minute, second experiment, dilution factor 10^2
  CPE test, virus replication in cell wells (wells 1-10): +
0.2 mM EGCG + H3N2 virus, 1 minute, second experiment, dilution factor 10^3
  CPE test, virus replication in cell wells (wells 1-10): +
0.2 mM EGCG + H3N2 virus, 1 minute, second experiment, dilution factor 10^4
  CPE test, virus replication in cell wells (wells 1-10): +
0.2 mM EGCG + H3N2 virus, 1 minute, second experiment, dilution factor 10^5
  CPE test, virus replication in cell wells (wells 1-10): + and −
0.2 mM EGCG + H3N2 virus, 1 minute, second experiment, dilution factor 10^6
  CPE test, virus replication in cell wells (wells 1-10): −
0.2 mM EGCG + H3N2 virus, 1 minute, second experiment, dilution factor 10^7
  CPE test, virus replication in cell wells (wells 1-10): −
0.2 mM EGCG + H3N2 virus, 1 minute, second experiment, dilution factor 10^8
  CPE test, virus replication in cell wells (wells 1-10): −
0.2 mM EGCG + H3N2 virus, 1 minute, third experiment, dilution factor 10^1
  CPE test, virus replication in cell wells 1-10: +
0.2 mM EGCG + H3N2 virus, 1 minute, third experiment, dilution factor 10^2
  CPE test, virus replication in cell wells 1-10: +
0.2 mM EGCG + H3N2 virus, 1 minute, third experiment, dilution factor 10^3
  CPE test, virus replication in cell wells 1-10: +
0.2 mM EGCG + H3N2 virus, 1 minute, third experiment, dilution factor 10^4
  CPE test, virus replication in cell wells 1-10: +
0.2 mM EGCG + H3N2 virus, 1 minute, third experiment, dilution factor 10^5
  CPE test, virus replication in cell wells 1-10: + and −
0.2 mM EGCG + H3N2 virus, 1 minute, third experiment, dilution factor 10^6
  CPE test, virus replication in cell wells 1-10: −
0.2 mM EGCG + H3N2 virus, 1 minute, third experiment, dilution factor 10^7
  CPE test, virus replication in cell wells 1-10: −
0.2 mM EGCG + H3N2 virus, 1 minute, third experiment, dilution factor 10^8
  CPE test, virus replication in cell wells 1-10: −
0.2 mM EGCG + H3N2 virus, 5 minute, first experiment, dilution factor 10^1
  CPE test, virus replication in cell wells 1-10: +
0.2 mM EGCG + H3N2 virus, 5 minute, first experiment, dilution factor 10^2
  CPE test, virus replication in cell wells 1-10: +
0.2 mM EGCG + H3N2 virus, 5 minute, first experiment, dilution factor 10^3
  CPE test, virus replication in cell wells 1-10: +
0.2 mM EGCG + H3N2 virus, 5 minute, first experiment, dilution factor 10^4
  CPE test, virus replication in cell wells 1-10: +
0.2 mM EGCG + H3N2 virus, 5 minute, first experiment, dilution factor 10^5
  CPE test, virus replication in cell wells 1-10: + and −
0.2 mM EGCG + H3N2 virus, 5 minute, first experiment, dilution factor 10^6
  CPE test, virus replication in cell wells 1-10: −
0.2 mM EGCG + H3N2 virus, 5 minute, first experiment, dilution factor 10^7
  CPE test, virus replication in cell wells 1-10: −
0.2 mM EGCG + H3N2 virus, 5 minute, first experiment, dilution factor 10^8
  CPE test, virus replication in cell wells 1-10: −
0.2 mM EGCG + H3N2 virus, 5 minute, second experiment, dilution factor 10^1
  CPE test, virus replication in cell wells 1-10: +
0.2 mM EGCG + H3N2 virus, 5 minute, second experiment, dilution factor 10^2
  CPE test, virus replication in cell wells 1-10: +
0.2 mM EGCG + H3N2 virus, 5 minute, second experiment, dilution factor 10^3
  CPE test, virus replication in cell wells 1-10: +
0.2 mM EGCG + H3N2 virus, 5 minute, second experiment, dilution factor 10^4
  CPE test, virus replication in cell wells 1-10: +
0.2 mM EGCG + H3N2 virus, 5 minute, second experiment, dilution factor 10^5
  CPE test, virus replication in cell wells 1-10: − and +
0.2 mM EGCG + H3N2 virus, 5 minute, second experiment, dilution factor 10^6
  CPE test, virus replication in cell wells 1-10: −
0.2 mM EGCG + H3N2 virus, 5 minute, second experiment, dilution factor 10^7
  CPE test, virus replication in cell wells 1-10: −
0.2 mM EGCG + H3N2 virus, 5 minute, second experiment, dilution factor 10^8
  CPE test, virus replication in cell wells 1-10: −
0.2 mM EGCG, H3N2 virus, 1 minute
  residual virus titer of EGCG+virus group (Karber method): 10^5 TCID50/50 μL
0.2 mM EGCG, H3N2 virus, 1 minute, three experiments
  average inactivation efficiency against virus: 28.93%
0.2 mM EGCG, H3N2 virus, 5 minutes, single experiment
  inactivation efficiency against the virus: 84.15%
0.2 mM EGCG, H3N2 virus, 5 minutes, two experiments
  average inactivation efficiency against virus: 76.27%
1 mM EGCG + H3N2 virus, 1 minute, first experiment, dilution factor 10^2
  CPE test, virus replication in cell wells (wells 1-10): +
1 mM EGCG + H3N2 virus, 1 minute, first experiment, dilution factor 10^3
  CPE test, virus replication in cell wells (wells 1-10): +
1 mM EGCG + H3N2 virus, 1 minute, first experiment, dilution factor 10^4
  CPE test, virus replication in cell wells (wells 1-10): +
1 mM EGCG + H3N2 virus, 1 minute, first experiment, dilution factor 10^5
  CPE test, virus replication in cell wells (wells 1-10): + and −
1 mM EGCG + H3N2 virus, 1 minute, first experiment, dilution factor 10^6
  CPE test, virus replication in cell wells (wells 1-10): −
1 mM EGCG + H3N2 virus, 1 minute, first experiment, dilution factor 10^7
  CPE test, virus replication in cell wells (wells 1-10): −
1 mM EGCG + H3N2 virus, 1 minute, first experiment, dilution factor 10^8
  CPE test, virus replication in cell wells (wells 1-10): −
1 mM EGCG + H3N2 virus, 1 minute, second experiment, dilution factor 10^1
  CPE test, virus replication in cell wells (wells 1-10): +
1 mM EGCG + H3N2 virus, 1 minute, second experiment, dilution factor 10^2
  CPE test, virus replication in cell wells (wells 1-10): +
1 mM EGCG + H3N2 virus, 1 minute, second experiment, dilution factor 10^3
  CPE test, virus replication in cell wells (wells 1-10): +
1 mM EGCG + H3N2 virus, 1 minute, second experiment, dilution factor 10^4
  CPE test, virus replication in cell wells (wells 1-10): + and −
1 mM EGCG + H3N2 virus, 1 minute, second experiment, dilution factor 10^5
  CPE test, virus replication in cell wells (wells 1-10): + and −
1 mM EGCG + H3N2 virus, 1 minute, second experiment, dilution factor 10^6
  CPE test, virus replication in cell wells (wells 1-10): −
1 mM EGCG + H3N2 virus, 1 minute, second experiment, dilution factor 10^7
  CPE test, virus replication in cell wells (wells 1-10): −
1 mM EGCG + H3N2 virus, 1 minute, second experiment, dilution factor 10^8
  CPE test, virus replication in cell wells (wells 1-10): −
1 mM EGCG + H3N2 virus, 1 minute, third experiment, dilution factor 10^2
  CPE test, virus replication in cell wells 1-10: +
1 mM EGCG + H3N2 virus, 1 minute, third experiment, dilution factor 10^3
  CPE test, virus replication in cell wells 1-10: +

Source: US20240238242A1, “EGCG buccal tablet and use thereof” (priority 2023, published 2024)
